Results reported in PMC7356696, “Synthesis, Antimicrobial Activity and Molecular Docking of Novel Thiourea Derivatives Tagged with Thiadiazole, Imidazole and Triazine Moieties as Potential DNA Gyrase and Topoisomerase IV Inhibitors” (Molecules, 2020).
Converted amounts (≈) assume the structure as drawn. Where two headings read alike, the source gives them in different places.

Columns and labels:
Format in all cases: cell-based
[1] = tested on: Bacillus subtilis ATCC 6633; experiment: Agar well diffusion, inhibition zone; parameters: dose or concentration left out as unconfirmed; conditions: ATCC6633, B. subtilis ATCC 6633, NA = No Activity, read-out: Mean Diameter of Inhibition Zone (Mean ± SEM)
From the text: (§1) The antimicrobial activity of all synthesized compounds 2–13 was screened against a panel of two Gram-positive bacteria (Staphylococcus aureus ATCC 29213 and Bacillus subtilis ATCC 6633), two Gram-negative bacteria (Escherichia coli ATCC 25922, Pseudomonas aeruginosa ATCC 27853) and two fungi (Candida albicans ATCC 10231 and Aspergillus flavus ATCC 46283) using the agar well diffusion method. Ciprofloxacin and clotrimazole were used as antibacterial and antifungal standards, respectively. The results of this study were recorded as the average diameter of the inhibition zones (IZ) in Table 1. […] Additionally, the promising activity against S. aureus was observed from compounds 9, 12 and 13, however against B. subtilis from compounds 12 and 13.
(§2) The antimicrobial assay was performed in vitro for the target compounds 2–13 against Staphylococcus aureus ATCC 29213, Bacillus subtilis ATCC 6633 as Gram-positive bacteria, Escherichia coli ATCC 25922, Pseudomonas aeruginosa ATCC 27853 as Gram-negative bacteria and Candida albicans ATCC 10231, Aspergillus flavus ATCC 46283 as fungi. At the first, 100 μL of the test bacteria/fungi were grown in 10 mL of fresh media until they reached a count of approximately 10^8 cells/ml for bacteria or 10^5 cells/mL for fungi. […] The plates were incubated for 24 h at 37 °C (for bacteria and yeast) and for 72 h at 27 °C (for filamentous fungi), each test was repeated three times. After incubation, the microorganism’s growth was observed. Ciprofloxacin and clotrimazole were used as standard antibacterial and antifungal drugs, respectively. The resulting inhibition zone diameters were measured in millimeters using the diffusion technique. […] The different concentrations (triplicate) of each compound were tested and compared with standard drugs.

[2] = tested on: Staphylococcus aureus ATCC 29213; experiment: Agar well diffusion, inhibition zone; parameters: dose or concentration left out as unconfirmed; conditions: ATCC29213, S. aureus ATCC 29213, NA = No Activity, read-out: Mean Diameter of Inhibition Zone (Mean ± SEM)
From the text: as §1, §2

[3] = tested on: Pseudomonas aeruginosa ATCC 27853; experiment: Agar well diffusion, inhibition zone; parameters: dose or concentration left out as unconfirmed; conditions: ATCC27853, P. aeruginosa ATCC 27853, NA = No Activity, read-out: Mean Diameter of Inhibition Zone (Mean ± SEM)
From the text: as §1
(§3) The antimicrobial assay was performed in vitro for the target compounds 2–13 against Staphylococcus aureus ATCC 29213, Bacillus subtilis ATCC 6633 as Gram-positive bacteria, Escherichia coli ATCC 25922, Pseudomonas aeruginosa ATCC 27853 as Gram-negative bacteria and Candida albicans ATCC 10231, Aspergillus flavus ATCC 46283 as fungi. At the first, 100 μL of the test bacteria/fungi were grown in 10 mL of fresh media until they reached a count of approximately 10^8 cells/ml for bacteria or 10^5 cells/mL for fungi. […] of each sample (at 0.5 mg/mL) was added to each well (10 mm diameter holes cut in the agar gel). The plates were incubated for 24 h at 37 °C (for bacteria and yeast) and for 72 h at 27 °C (for filamentous fungi), each test was repeated three times. After incubation, the microorganism’s growth was observed. Ciprofloxacin and clotrimazole were used as standard antibacterial and antifungal drugs, respectively. The resulting inhibition zone diameters were measured in millimeters using the diffusion technique. […] The different concentrations (triplicate) of each compound were tested and compared with standard drugs.

[4] = tested on: Aspergillus flavus ATCC 46283; experiment: Agar well diffusion, inhibition zone; parameters: dose or concentration left out as unconfirmed; conditions: ATCC46283, A. flavus ATCC 46283, NA = No Activity, read-out: Mean Diameter of Inhibition Zone (Mean ± SEM)
From the text: as §1, §3

[5] = MTT assay for cytotoxic activity; conditions: African green monkey, Vero cells (normal kidney epithelial cell line), read-out: IC50 (Mean ± SEM), cytotoxic activity
From the text: (§4) The results are expressed as IC50 values (µM) and are depicted in Table 3.

[6] = tested on: human breast cancer (MCF-7) cells; experiment: MTT assay for cytotoxic activity; conditions: read-out: IC50 (Mean ± SEM), cytotoxic activity
From the text: as §4

[7] = tested on: Bacillus subtilis ATCC 6633; experiment: MIC, modified agar well diffusion method; conditions: ATCC6633, B. subtilis ATCC 6633, read-out: MIC (Mean ± SEM)
From the text: as §1, §3

[8] = tested on: Pseudomonas aeruginosa ATCC 27853; experiment: MIC, modified agar well diffusion method; conditions: ATCC27853, P. aeruginosa ATCC 27853, read-out: MIC (Mean ± SEM)
From the text: as §1, §3

[9] = tested on: Staphylococcus aureus ATCC 29213; experiment: MIC, modified agar well diffusion method; conditions: ATCC29213, S. aureus ATCC 29213, read-out: MIC (Mean ± SEM)
From the text: as §1, §3

[10] = tested on: Candida albicans ATCC 10231; experiment: MIC, modified agar well diffusion method; conditions: ATCC10231, C. albicans ATCC 10231, read-out: MIC (Mean ± SEM)
From the text: as §1, §3

[11] = tested on: Aspergillus flavus ATCC 46283; experiment: MIC, modified agar well diffusion method; conditions: ATCC46283, A. flavus ATCC 46283, read-out: MIC (Mean ± SEM)
From the text: as §1, §3

[12] = tested on: Candida albicans ATCC 10231; experiment: Agar well diffusion, inhibition zone; parameters: dose or concentration left out as unconfirmed; conditions: ATCC10231, C. albicans ATCC 10231, NA = No Activity, read-out: Mean Diameter of Inhibition Zone (Mean ± SEM)
From the text: as §1, §3

[13] = tested on: Escherichia coli ATCC 25922; experiment: MIC, modified agar well diffusion method; conditions: ATCC25922, E. coli ATCC 25922, read-out: MIC (Mean ± SEM)
From the text: as §1, §3

[14] = tested on: Escherichia coli ATCC 25922; experiment: Agar well diffusion, inhibition zone; parameters: dose or concentration left out as unconfirmed; conditions: ATCC25922, E. coli ATCC 25922, NA = No Activity, read-out: Mean Diameter of Inhibition Zone (Mean ± SEM)
From the text: as §1, §3

[15] = Homo sapiens, MCF7, MCF-7 cells

SMILES | zone of inhibition [1] [mm] | zone of inhibition [2] [mm] | zone of inhibition [3] [mm] | zone of inhibition [4] [mm] | IC50 [5] [µM] | IC50 [6, 15] [µM] | MIC [7] [µg/mL] | MIC [8] [µg/mL] | MIC [9] [µg/mL] | MIC [10] [µg/mL] | MIC [11] [µg/mL] | zone of inhibition [12] [mm] | MIC [13] [µg/mL] | zone of inhibition [14] [mm] | IC50 ([6]; MCF-7 cells) [µM]
N#CCc1nnc(NC(=O)Cc2ccccc2)s1 [Compound 10, N-(5-(Cyanomethyl)-1,3,4-thiadiazol-2-yl)-2-phenylacetamide] | 12 ± 0.21 | 15 ± 0.42 | 6 ± 0.02 | 6 ± 0.41 |  |  |  |  |  |  |  |  |  |  | 
O=c1cc2nc(Cc3ccccc3)[nH]c(=S)n2[nH]1 [Compound 9, 2-Benzyl-3,4-dihydro-4-thioxopyrazolo[1,5-a][1,3,5]triazin-7(6H)-one] | 18 ± 0.25 | 21 ± 0.3 | 9 ± 0.25 | 15 ± 0.33 | 62.45 ± 0.2 | 26.4 ± 0.46 | 8.6 ± 0.25 (≈ 33.3 µM) | 17.6 ± 0.2 (≈ 68.2 µM) | 9.92 ± 0.3 (≈ 38.4 µM) | 94 ± 0.1 (≈ 364 µM) | 20.4 ± 0.3 (≈ 79.2 µM) | 9 ± 0.2 |  |  | 
O=C(Cc1ccccc1)Nc1nnc(C(=Cc2cccs2)NC(=O)c2ccccc2)s1 [Compound 13, N-(1-(5-(2-Phenylacetamido)-1,3,4-thiadiazol-2-yl)-2-(thiophen-2-yl)vinyl)benzamide] | 24 ± 1.11 | 21 ± 0.1 | 15 ± 0.11 | 18 ± 0.22 | 84.11 ± 0.32 | 37.7 ± 0.93 | 2.72 ± 1.11 (≈ 6.09 µM) | 13.41 ± 0.1 (≈ 30 µM) | 5.6 ± 0.15 (≈ 12.5 µM) | 83 ± 0.22 (≈ 186 µM) | 14.6 ± 0.2 (≈ 32.6 µM) | 12 ± 0.46 | 33 (≈ 73.9 µM) | 6 ± 0.15 | 
CCOC(=O)CNC(=S)NC(=O)Cc1ccccc1 [Compound 2, Ethyl ((2-phenylacetyl)carbonothionyl)glycinate] |  | 9 ± 0.61 |  |  |  |  |  |  |  |  |  |  |  |  | 
O=C(Cc1ccccc1)NC(=S)N1NC(=O)C(=Cc2ccccc2)N=C1c1ccccc1 [Compound 12, 5-Benzylidene-5,6-dihydro-N-(1-hydroxy-2-phenylethylidene)-6-oxo-3-phenyl-1,2,4-triazine-2(1H)-carbothioamide] | 23 ± 0.01 | 22 ± 0.05 | 17 ± 0.2 | 18 ± 0.03 | 79.19 ± 0.28 | 35.9 ± 0.85 | 2.3 ± 0.05 (≈ 5.22 µM) | 12.5 ± 0.2 (≈ 28.4 µM) | 5.22 ± 0.03 (≈ 11.8 µM) | 85 ± 0.15 (≈ 193 µM) | 15.6 ± 0.01 (≈ 35.4 µM) | 14 ± 0.21 | 27 ± 0.02 (≈ 61.3 µM) | 5 ± 0.58 | 
O=C(Cc1ccccc1)NC(=S)NN1C(=O)C(=Cc2ccccc2)N=C1c1ccccc1 [Compound 6, 1-(4-Benzylidene-4,5-dihydro-5-oxo-2-phenylimidazol-1-yl)-3-(2-phenylacetyl)thiourea] | 30 ± 0.26 | 27 ± 0.2 | 21 ± 0.26 | 9 ± 0.03 | 122.8 ± 0.4 | 23.7 ± 0.96 | 2.29 ± 0.05 (≈ 5.2 µM) | 2.48 ± 0.11 (≈ 5.63 µM) | 5.12 ± 0.05 (≈ 11.6 µM) | 91 ± 0.02 (≈ 207 µM) | 26.2 ± 0.03 (≈ 59.5 µM) | 6 ± 0.22 | 7.8 ± 0.1 (≈ 17.7 µM) | 12 ± 0.1 | 
O=C(Cc1ccccc1)NC(=S)NNC(=O)C(=Cc1ccccc1)NC(=O)c1ccccc1 [Compound 7a, 1-(2-Benzamido-3-phenylacryloyl)-4-phenylacetylthiosemicarbazide] | 33 ± 0.5 | 30 ± 0.22 | 27 ± 0.03 | 24 ± 0.02 | 149.1 ± 0.21 | 10.2 ± 0.65 | 1.39 ± 0.5 (≈ 3.03 µM) | 2.81 ± 0.01 (≈ 6.13 µM) | 4.15 ± 0.22 (≈ 9.05 µM) | 64 ± 0.41 (≈ 140 µM) | 5.21 ± 0.11 (≈ 11.4 µM) | 15 ± 0.3 | 4.22 ± 0.12 (≈ 9.2 µM) | 18 ± 0.22 | 
N=c1oc2ccccc2cc1-c1nnc(NC(=O)Cc2ccccc2)s1 [Compound 11, N-(5-(2-Imino-2H-chromen-3-yl)-1,3,4-thiadiazol-2-yl)-2-phenylacetamide] | 6 ± 0.53 | 12 ± 0.3 |  |  |  |  |  |  |  |  |  |  |  |  | 
Clc1ccccc1C(c1ccccc1)(c1ccccc1)n1ccnc1 [Clotrimazole, reference compound] |  |  |  | 25 ± 0.4 |  |  |  |  |  | 12.5 ± 0.15 (≈ 36.2 µM) | 4.25 ± 0.05 (≈ 12.3 µM) | 27 ± 0.21 |  |  | 
O=C(Cc1ccccc1)NC(=S)NNC(=O)C(=Cc1cccs1)NC(=O)c1ccccc1 [Compound 7b, 1-(2-Benzamido-3-(thiophen-2-yl)acryloyl)-4-phenylacetylthiosemicarbazide] | 35 ± 0.26 | 33 ± 0.01 | 26 ± 0.21 | 25 ± 0.15 | 133.3 ± 0.4 | 11.6 ± 0.59 | 1.46 ± 0.1 (≈ 3.14 µM) | 2.72 ± 0.15 (≈ 5.85 µM) | 3.9 ± 0.26 (≈ 8.39 µM) | 76 ± 0.31 (≈ 164 µM) | 5.7 ± 0.01 (≈ 12.3 µM) | 16 ± 0.12 | 4.68 ± 0.13 (≈ 10.1 µM) | 18 ± 0.41 | 11.6 ± 0.59
O=C(O)c1cn(C2CC2)c2cc(N3CCNCC3)c(F)cc2c1=O [Ciprofloxacin, reference compound] | 23 ± 0.2 | 24 ± 0.6 | 23 ± 0.9 |  |  |  | 2.9 ± 0.02 (≈ 8.75 µM) | 2.9 ± 0.04 (≈ 8.75 µM) | 5.85 ± 0.13 (≈ 17.7 µM) |  |  |  | 2.9 ± 0.25 (≈ 8.75 µM) | 26 ± 0.25 | 
